# US20080226750A1, “Methods, Compositions and Articles of Manufacture for Treating Shock and Other Adverse Conditions” (priority 2006, published 2008)
# Read-outs that look alike come from different tables or passages of the source.
# Assays:
# humans = settings: cited from earlier work
# rat hemorrhage model = assay: Controlled lethal hemorrhage (60% blood loss) in rats treated with H2S; format: in vivo
# Experimental: After surgical implantation of catheters and recovery, blood was removed from conscious animals in 40 minutes. […] Three hours after the end of the bleed, surviving animals were given one shed-blood volume of lactated ringers solution intravenously.
# Drosophila melanogaster [1] = assay: Anoxia tolerance of adult flies after CO2 and/or H2S pretreatment; format: in vivo
# Experimental: Basic experimental setup. Adult flies were introduced into 35 mL tubes made of glass with a gas-tight rubber stopper (Balsh tubes). This was usually accomplished by anesthetizing flies with CO2, moving groups of flies to vials with food to recover for at least 2 hours, and then transferring them into the Balsh tube. To exchange the gaseous environment in the Balsh tube, two 18 gauge needles were inserted into the rubber stopper, and gas is blown into one of the needles at 100 mL/min. To prevent dessication, gasses were humidified by bubbling through 10 mL of water before passing it through the Balsch tube. The water in the bubbler is equilibrated with the gas for at least 20 minutes before starting the experiment.
# For “stopped-flow” experiments, gas exchange proceeded for 60 minutes before sealing the tube. For “low-flow” experiments, gas flow continued throughout the experiment. CO2 was from the house source (100%), and anoxic environments were established by flushing out room air with 100% nitrogen (N2). Care was taken to prevent introduction of room air into the system while switching the atmosphere from CO2 to N2.
# After anoxic treatment, oxygen was reintroduced into the Balsh tube by flushing with house air for 20 minutes. The rubber stopper was then removed and a food vial is inverted over the top of the Balsh tubes with Parafilm. […] Viability was scored at least 18 hours after the end of anoxic treatment. After two weeks, if the food vials contained larvae and/or pupae the flies were considered to be fertile.
# mice in lethal hypoxia = assay: Survival of H2S pre-treated mice in lethal hypoxia; format: in vivo, mouse; settings: graded reduction of oxygen tension following H2S pre-treatment
# Experimental: FIG. 11 Survival of Mice in 5% Oxygen.
# Experiments were stopped at 60 minutes and if the animals still alive were returned to their cage.
# mice = assay: Metabolic rate (CO2 production, O2 consumption) of mice with H2S and hypoxia; format: in vivo, mouse; settings: Ta=13° C.
# Experimental: FIG. 14 Metabolic Rate of a Mouse in 5% Oxygen. […] Metabolic rate measured by CO2 output. […] At hour 6 the mouse was returned to room air and allowed to recover.
# FIG. 15 CO2 Production During Transition to Lethal Hypoxia. […] In addition, the change in CO2 production upon step-wise transition to 5% O2 for 1 hr followed by 4% O2 was measured. The percent change in CO2 production is plotted with standard error indicated.
# Relative carbon dioxide production and oxygen consumption of a mouse when pretreated and exposed to 5% O2. […] These experiments were done at Ta=13° C. so they could be compared to our previous studies. Values are the means from three animals and the error bars represent one standard deviation. p-values indicate the significance between the bars with the same symbols.
# To determine the rate of consumption of oxygen or the rate of production of carbon dioxide the biological matter is placed into a chamber that is sealed with two openings; for gas import and export. Gas (room air or other gases) is passed into the chamber at a given flow rate and out of the exit port to maintain approximately 1 atmosphere of pressure in the chamber. […]
# In addition, the change in CO2 production upon step-wise transition to 5% O2 for 1 hr followed by 4% O2 was measured.
# C. elegans [2] = assay: Thermotolerance of C. elegans adapted to H2S; format: in vivo
# Source text: A: Adapted animals survive at high temperature longer than unadapted controls. Adapted animals were exposed to high temperature in H2S as young adults.
# C. elegans [3] = assay: Lifespan of C. elegans adapted to H2S; format: in vivo
# Source text: Animals raised in house air were moved to H2S-containing environments at the beginning of the lifespan experiment. The lifespan of these animals is 14.8±0.3 days, which is shorter than controls that remained in house air (mean lifespan 18.2±0.4 days).
# C. elegans [4] = assay: Developmental rates, progeny and rate of egg-laying of C. elegans in H2S; format: in vivo
# Source text: The rate of egg-laying is tightly correlated with oocyte production, an energetically expensive activity that is a sensitive readout of metabolic capacity.
# rodents and humans = settings: 500 ppm; followed by recovery; cited from earlier work
# rats = settings: cited from earlier work
# [5] = test system: Drosophila melanogaster embryos and larvae; assay: Anoxia survival of fly embryos and larvae; format: in vivo
# Experimental: Preliminary experiments with larvae and embryos. […] After exposure to anoxia for 24 h, 7 pupae were formed from a pool of 0-19 h old embryos. However, 20 pupae were observed from a matched pool that was pretreated with CO2 for 10 min.
# Drosophila melanogaster [6] = assay: Anoxia tolerance of adult flies after CO2 and/or H2S pretreatment; format: in vivo; settings: bubbler water not equilibrated with N2, 13 h anoxic exposure
structure (smiles),measurement,setting,value
"[C-]#[O+] [carbon monoxide, Carbon monoxide]",Effect on exposed humans,humans; 50 ppm,no symptoms
same,Effect on exposed humans,"humans; 200 ppm, within two-three hours",slight headache
same,Effect on exposed humans,"humans; 400 ppm, within one to two hours",frontal headache
same,Effect on exposed humans,"humans; 800 ppm, within 45 minutes","dizziness, nausea, and/or convulsions"
same,Effect on an organism,"humans; around 1000 ppm, exposure for more than around 1-2 minutes",expire
"S [H2S, Hydrogen sulfide]",Complete recovery,rat hemorrhage model; 300 ppm H2S in room air from 20 min into the 40 min bleed to end of bleed,85.7%
same,Rats that survived hemorrhage and 3 hour shock period and recovered completely,"rat hemorrhage model; 300 ppm H2S, survivors/treated",6/7
same,Blood bicarbonate content ([HCO3^−]),rat hemorrhage model; End of bleed,21 ± 3 mmol/L
same,Blood bicarbonate content ([HCO3^−]),rat hemorrhage model; Pre-bleed,32 ± 3 mmol/L
same,Survival of adult flies,"Drosophila melanogaster [1]; 50 ppm H2S in room air prior to anoxia, 18.5 h",25%
same,Survival of adult flies,"Drosophila melanogaster [1]; 50 ppm H2S in the CO2 pretreatment, removed as anoxia is established, 20 h",35%
same,Survival of adult flies,"Drosophila melanogaster [1]; CO2 10 min, H2S/CO2 10 min, N2/H2S 10 min, then N2, 15 h anoxic exposure, low-flow",50%
same,Lowest oxygen tension survived for an hour,mice in lethal hypoxia,2.5%
same,Drop in metabolic rate,mice; 150 ppm H2S 20 min pretreatment then long exposure to 5% oxygen,over 50 fold
same,Drop in metabolic rate,"mice; H2S alone for the same period of time (80 ppm, six hours)",10 fold
same,Survival at high temperature,C. elegans [2]; adapted animals at high temperature in room air,7.3 h
same,H2S-treated animals alive when all untreated animals had died,"C. elegans [2]; average, data not shown",80%
same,Mean survival time at high temperature,"C. elegans [2]; sir-2.1(ok434) animals grown in H2S, high temperature in H2S (n=20)",9.8 ± 0.3 h
same,Mean survival time at high temperature,C. elegans [2]; unadapted animals moved to high temperature in 50 ppm H2S,2.1 h
same,Mean survival time at high temperature,"C. elegans [2]; wild-type adapted animals, high temperature in H2S (n=136)",65.5 h
same,Mean lifespan,C. elegans [3]; adapted animals in H2S (n=80),22.6 ± 1.0 days
same,Increase of maximum lifespan,C. elegans [3]; animals grown in H2S versus untreated controls,4 days
same,Lifespan,"C. elegans [3]; raised in house air, moved to H2S at the beginning of the lifespan experiment",14.8 ± 0.3 days
same,Lifespan,C. elegans [3]; sir-2.1(ok434) animals raised in H2S (n=47),20.0 ± 1.6 days
same,Rate of egg-laying,"C. elegans [4]; adapted (wild-type in 50 ppm H2S), in 2% O2",4.9 ± 1.4 embryos per hour
same,Rate of egg-laying,"C. elegans [4]; adapted (wild-type in 50 ppm H2S), in 2% O2 + H2S",4.7 ± 1.2 embryos per hour
same,Rate of egg-laying,"C. elegans [4]; adapted (wild-type in 50 ppm H2S), in H2S",7.8 ± 2.0 embryos per hour
same,"embryogenesis, hours ± SEM (n)","C. elegans [4]; adapted: wild-type animals in 50 ppm H2S, median time for 2-cell embryos to hatch at room temperature",13.3 ± 0.4 (34) hours
same,"post-embryonic, hours ± SEM (n)","C. elegans [4]; adapted: wild-type animals in 50 ppm H2S, median time for starved first-stage larvae to become gravid adults",49.3 ± 0.2 (15) hours
same,Numbers of progeny,C. elegans [4]; animals raised in low H2S,221±35
same,Rate of egg-laying,"C. elegans [4]; clk-1(qm30), in 2% O2 + H2S",2.5 ± 1.0 embryos per hour
same,Rate of egg-laying,"C. elegans [4]; clk-1(qm30), in H2S",3.2 ± 1.1 embryos per hour
same,Rate of egg-laying,"C. elegans [4]; unadapted (wild-type grown in room air), in H2S, ± SD, n = 10",8.3 ± 3.0 embryos per hour
same,Rate of egg-laying,"C. elegans [4]; unadapted, in 2% O2 + H2S",4.5 ± 1.6 embryos per hour
same,Effect of exposure to extreme levels,rodents and humans,sudden collapse and unconsciousness
same,Effect of perinatal exposure,"rats; 20 or 50 ppm H2S, 7 hours per day from gestation through post-natal day 21",longer dendritic branches with reduced aborization of cerebellar Purkinje cells
same,Effects of repeated gas exposure,"rats; 80 ppm or greater H2S, 3 hours per day on five consecutive days (Struve et al. 2001)","Significant reductions in motor activity, water maze performance and body temperature"
same,"Behavioral toxicity, learning","rats; moderate levels (Partlo et al., 2001)",interferes with the ability of rats to learn a baited radial arm maze task
same,"Behavioral toxicity, avoidance","rats; moderate levels, immediately after the end of the exposure (Higuchi and Fukamachi)",inhibits discriminated avoidance responses
same,Effects in exposed rat pups,"rats; perinatal study, 80 ppm H2S (Dorman et al. 2000)","no neuropathological effects or altered motor activity, passive avoidance, or acoustic startle response"
"O=C=O [CO, carbon dioxide]",Flies recovered,"Drosophila melanogaster [1]; treated only with CO2 for 10 min before the anoxic exposure, control experiment",11%
"O=C=O [CO2, carbon dioxide]",Survival of adult flies,"Drosophila melanogaster [1]; 10 min CO2 pretreatment, 17, 22, and 24 h anoxia, low-flow, one experiment",no survival
same,Survival of adult flies,"Drosophila melanogaster [1]; CO2 10 minutes pretreatment (no H2S), 20 h anoxic exposure, low-flow",6%
same,Survival of adult flies,"Drosophila melanogaster [1]; CO2 pretreatment 30 minutes, 19 h anoxic exposure, stopped-flow",54%
same,Survival of adult flies,"Drosophila melanogaster [1]; CO2 pretreatment 90 minutes, 19 h anoxic exposure, stopped-flow",28%
same,Survival of adult flies,"Drosophila melanogaster [1]; CO2 pretreatment, anoxic exposure, then CO2 for 20 minutes immediately following",no flies survived
same,Survival of adult flies,Drosophila melanogaster [1]; CO2 without subsequent anoxic exposure,No survival
same,Effect of CO2 pretreatment in cold treatment experiments,Drosophila melanogaster [1]; flies kept at 4° C. during anoxia,did not have a noticeable difference
same,Survival versus no pretreatment,"Drosophila melanogaster [1]; low-flow, 100% CO2 10 min, trend (FIG. 9)",greater survival
same,Time of CO2 administration giving the highest fraction of surviving flies,"Drosophila melanogaster [1]; stopped-flow, 22 h anoxic exposure",0.5 to 5 min
same,Survival of 0-24 h old embryos,[5]; 18.5 h anoxic exposure,develop to adulthood
same,Movement of larvae upon reoxygenation,"[5]; 24.5 h anoxia, only if pretreated",resume movement
same,Pupae formed from a pool of 0-19 h old embryos,"[5]; CO2 pretreatment 10 min, anoxia 24 h",20 pupae
same,Survival of adult flies,Drosophila melanogaster [6],no flies survived
